Key:
Hepatotoxicity [1] = system: Hepatotoxicity;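 on HepSE Combined Scores: combined hepatic side effect score as listed in the training data of the Drug Induced Liver Injury Prediction System (DILIps)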;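 on HepSE bilirubinemia: bilirubinemia hepatic side effect score drawn from the DILIps training data, a prediction system for drug-induced liver injury; call rule not given here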;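 on HepSE cholecystitis: Cholecystitis-related hepatic side effect score drawn from the DILIps (drug-induced liver injury prediction) training data set; call rule not given here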;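 on HepSE elevated liver function tests: hepatic side effect score for raised liver function tests, as recorded in the DILIps training set used for predicting drug-induced liver injury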;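 on HepSE jaundice: Jaundice-related hepatic side-effect score drawn from the training data of the DILIps (drug-induced liver injury prediction system); call rule not given here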; on HepSE liver disease: call rule not given here;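 on HepSE liver function tests abnormal: hepatic side effect score taken from the DILIps (drug-induced liver injury prediction system) training data, here covering abnormal liver function test findings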
Hepatotoxicity [2] = system: Hepatotoxicity; remark: listed apart in the source;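 on HepSE bilirubinemia: bilirubinemia hepatic side effect score drawn from the DILIps training data, a prediction system for drug-induced liver injury; call rule not given here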;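 on HepSE cholecystitis: Cholecystitis-related hepatic side effect score drawn from the DILIps (drug-induced liver injury prediction) training data set; call rule not given here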;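 on HepSE elevated liver function tests: hepatic side effect score for raised liver function tests, as recorded in the DILIps training set used for predicting drug-induced liver injury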;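 on HepSE jaundice: Jaundice-related hepatic side-effect score drawn from the training data of the DILIps (drug-induced liver injury prediction system); call rule not given here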; on HepSE liver disease: call rule not given here;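 on HepSE liver function tests abnormal: hepatic side effect score taken from the DILIps (drug-induced liver injury prediction system) training data, here covering abnormal liver function test findings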
Hepatotoxicity [3] = system: Hepatotoxicity; remark: listed apart in the source;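 on HepSE bilirubinemia: bilirubinemia hepatic side effect score drawn from the DILIps training data, a prediction system for drug-induced liver injury; call rule not given here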;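 on HepSE cholecystitis: Cholecystitis-related hepatic side effect score drawn from the DILIps (drug-induced liver injury prediction) training data set; call rule not given here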;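 on HepSE elevated liver function tests: hepatic side effect score for raised liver function tests, as recorded in the DILIps training set used for predicting drug-induced liver injury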;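 on HepSE jaundice: Jaundice-related hepatic side-effect score drawn from the training data of the DILIps (drug-induced liver injury prediction system); call rule not given here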; on HepSE liver disease: call rule not given here;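 on HepSE liver function tests abnormal: hepatic side effect score taken from the DILIps (drug-induced liver injury prediction system) training data, here covering abnormal liver function test findings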
Hepatotoxicity [4] = system: Hepatotoxicity; remark: listed apart in the source;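 on HepSE bilirubinemia: bilirubinemia hepatic side effect score drawn from the DILIps training data, a prediction system for drug-induced liver injury; call rule not given here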;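 on HepSE cholecystitis: Cholecystitis-related hepatic side effect score drawn from the DILIps (drug-induced liver injury prediction) training data set; call rule not given here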;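 on HepSE elevated liver function tests: hepatic side effect score for raised liver function tests, as recorded in the DILIps training set used for predicting drug-induced liver injury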;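 on HepSE jaundice: Jaundice-related hepatic side-effect score drawn from the training data of the DILIps (drug-induced liver injury prediction system); call rule not given here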; on HepSE liver disease: call rule not given here;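 on HepSE liver function tests abnormal: hepatic side effect score taken from the DILIps (drug-induced liver injury prediction system) training data, here covering abnormal liver function test findings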
Hepatotoxicity [5] = system: Hepatotoxicity; remark: listed apart in the source; on HepSE liver disease: call rule not given here
Hepatotoxicity [6] = system: Hepatotoxicity; remark: listed apart in the source; on HepSE liver disease: call rule not given here
Hepatotoxicity [7] = system: Hepatotoxicity; remark: listed apart in the source
Hepatotoxicity [8] = system: Hepatotoxicity; remark: listed apart in the source
Hepatotoxicity [9] = system: Hepatotoxicity; remark: listed apart in the source
Hepatotoxicity [10] = system: Hepatotoxicity; remark: listed apart in the source
Hepatotoxicity [11] = system: Hepatotoxicity; remark: listed apart in the source
Hepatotoxicity [12] = system: Hepatotoxicity; remark: listed apart in the source
Hepatotoxicity [13] = system: Hepatotoxicity; remark: listed apart in the source
Hepatotoxicity [14] = system: Hepatotoxicity; remark: listed apart in the source

Row | Structure (SMILES) | HepSE_elevated liver function tests (Hepatotoxicity [1]) | HepSE_bilirubinemia (Hepatotoxicity [2]) | HepSE_jaundice (Hepatotoxicity [3]) | HepSE_cholecystitis (Hepatotoxicity [4]) | HepSE_liver disease (Hepatotoxicity [5]) | HepSE_liver function tests abnormal (Hepatotoxicity [6]) | HepSE_Combined Scores (Hepatotoxicity [7]) | HepSE_cirrhosis (Hepatotoxicity [8]) | HepSE_cholelithiasis (Hepatotoxicity [9]) | HepSE_hepatic failure (Hepatotoxicity [10]) | HepSE_hepatomegaly (Hepatotoxicity [11]) | HepSE_hepatitis (Hepatotoxicity [12]) | HepSE_liver fatty (Hepatotoxicity [13]) | HepSE_hepatic necrosis (Hepatotoxicity [14]) | further results
1 | CCOC(=O)Nc1ccc2c(c1)N(C(=O)CCN1CCOCC1)c1ccccc1S2 [MORICIZINE] | 0 | 0 | 1 | 0 | 0 | 0 | 2 | 0 | 0 | 0 | 0 | 1 | 0 | 0 | 
2 | COc1c(N2C[C@@H]3CCCN[C@@H]3C2)c(F)cc2c(=O)c(C(=O)O)cn(C3CC3)c12 [MOXIFLOXACIN] | 0 | 1 | 1 | 0 | 0 | 1 | 5 | 0 | 0 | 1 | 0 | 1 | 0 | 0 | 
3 | C/C(=C\C(=O)OCCCCCCCCC(=O)O)C[C@@H]1OC[C@H](C[C@@H]2O[C@H]2[C@@H](C)[C@H](C)O)[C@@H](O)[C@H]1O [MUPIROCIN] | 0 | 0 | 0 | 0 | 0 | 0 | 0 | 0 | 0 | 0 | 0 | 0 | 0 | 0 | 
4 | COc1c(C)c2c(c(O)c1C/C=C(\C)CCC(=O)O)C(=O)OC2 [MYCOPHENOLIC ACID] | 0 | 1 | 1 | 0 | 1 | 1 | 5 | 0 | 0 | 0 | 0 | 1 | 0 | 0 | 
5 | CCCCCCC(C)(C)c1cc(O)c2c(c1)OC(C)(C)C1CCC(=O)CC21 (configuration not stated) [NABILONE] | 0 | 0 | 0 | 0 | 0 | 0 | 0 | 0 | 0 | 0 | 0 | 0 | 0 | 0 | 
6 | COc1ccc2cc(CCC(C)=O)ccc2c1 [NABUMETONE] | 1 | 0 | 1 | 0 | 0 | 0 | 3 | 0 | 0 | 1 | 0 | 0 | 0 | 0 | 
7 | CC(C)(C)NCC(O)COc1cccc2c1CC(O)C(O)C2 (configuration not stated) [NADOLOL] | 0 | 0 | 0 | 0 | 0 | 0 | 0 | 0 | 0 | 0 | 0 | 0 | 0 | 0 | 
8 | CN(C/C=C/c1ccccc1)Cc1cccc2ccccc12 [NAFTIFINE] |  |  |  |  |  |  |  |  |  |  |  |  |  |  | HepSE_elevated liver function tests (Hepatotoxicity [1]; Liver): 0; HepSE_bilirubinemia (Hepatotoxicity [2]; Liver): 0; HepSE_jaundice (Hepatotoxicity [3]; Liver): 0; HepSE_cholecystitis (Hepatotoxicity [4]; Liver): 0; HepSE_liver disease (Hepatotoxicity [5]; Liver): 0; HepSE_liver function tests abnormal (Hepatotoxicity [6]; Liver): 0; HepSE_Combined Scores (Hepatotoxicity [7]; Liver): 0; HepSE_cirrhosis (Hepatotoxicity [8]; Liver): 0; HepSE_cholelithiasis (Hepatotoxicity [9]; Liver): 0; HepSE_hepatic failure (Hepatotoxicity [10]; Liver): 0; HepSE_hepatomegaly (Hepatotoxicity [11]; Liver): 0; HepSE_hepatitis (Hepatotoxicity [12]; Liver): 0; HepSE_liver fatty (Hepatotoxicity [13]; Liver): 0; HepSE_hepatic necrosis (Hepatotoxicity [14]; Liver): 0
9 | Oc1ccc2c3c1O[C@H]1[C@@H](O)CC[C@@]4(O)[C@@H](C2)N(CC2CCC2)CC[C@]314 [NALBUPHINE] | 0 | 0 | 0 | 0 | 0 | 0 | 0 | 0 | 0 | 0 | 0 | 0 | 0 | 0 | 
10 | CCn1cc(C(=O)O)c(=O)c2ccc(C)nc21 [NALIDIXIC ACID] | 0 | 0 | 0 | 0 | 0 | 0 | 0 | 0 | 0 | 0 | 0 | 0 | 0 | 0 | 
11 | C=CCN1CC[C@]23c4c5ccc(O)c4O[C@H]2C(=O)CC[C@@]3(O)[C@H]1C5 [NALOXONE] | 0 | 0 | 0 | 0 | 0 | 0 | 0 | 0 | 0 | 0 | 0 | 0 | 0 | 0 | 
12 | O=C1CC[C@@]2(O)[C@H]3Cc4ccc(O)c5c4[C@@]2(CCN3CC2CC2)[C@H]1O5 [NALTREXONE] | 0 | 0 | 0 | 0 | 0 | 0 | 2 | 0 | 1 | 0 | 0 | 1 | 0 | 0 | 
13 | C[C@]12CC[C@H]3[C@@H](CCC4=CC(=O)CC[C@@H]43)[C@@H]1CC[C@@H]2O [NANDROLONE] | 0 | 0 | 0 | 0 | 0 | 0 | 0 | 0 | 0 | 0 | 0 | 0 | 0 | 0 | 

Source: ChEMBL document CHEMBL1909294, “Translating clinical findings into knowledge in drug safety evaluation--drug induced liver injury prediction system (DILIps)” (PLoS Comput Biol, 2011)
